Results published in PubChem BioAssay AID1083 (University of Pittsburgh Molecular Library Screening Center, 2008).
“And” between values parts separate entries of the source, which are not always exact repeats. Identical values can stand only once. The source made the active and inactive calls. No rule for the calls is given here.

Molecular target: Serine/threonine-protein kinase PLK1 (Homo sapiens) (UniProt P53350)
Experiment: PLK1 polo-box domain peptide-binding inhibitors, SAR follow-up, biochemical, fluorescence polarization, purchased analogs, concentration response (AID 1083)
Details: Plk1 PBD peptide binding

Serine/threonine-protein kinase PLK1 (Homo sapiens), sequence (P53350 whole entry, looked up, the tested form may be a part): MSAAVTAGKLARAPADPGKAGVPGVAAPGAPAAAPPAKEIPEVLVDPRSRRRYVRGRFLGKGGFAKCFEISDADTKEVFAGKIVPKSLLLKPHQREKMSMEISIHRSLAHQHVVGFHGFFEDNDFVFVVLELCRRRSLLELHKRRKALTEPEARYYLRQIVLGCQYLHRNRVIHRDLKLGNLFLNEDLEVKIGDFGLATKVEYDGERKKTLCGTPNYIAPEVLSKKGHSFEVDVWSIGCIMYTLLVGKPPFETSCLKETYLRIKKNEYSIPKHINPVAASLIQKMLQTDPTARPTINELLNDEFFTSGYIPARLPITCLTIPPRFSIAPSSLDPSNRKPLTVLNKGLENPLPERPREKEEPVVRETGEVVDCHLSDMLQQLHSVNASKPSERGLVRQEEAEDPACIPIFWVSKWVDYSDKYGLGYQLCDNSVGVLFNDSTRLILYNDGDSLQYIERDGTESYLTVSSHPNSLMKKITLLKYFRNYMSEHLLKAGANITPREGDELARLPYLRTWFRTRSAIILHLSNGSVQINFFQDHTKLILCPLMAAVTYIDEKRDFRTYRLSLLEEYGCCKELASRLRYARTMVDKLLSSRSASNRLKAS

| SMILES | IC50 |
| --- | --- |
| CCN(CC)CCOC(=O)c1ccc(N=Cc2c(O)[nH]c(=O)[nH]c2=O)cc1 | > 50 µM (inactive) |
| Cn1c(=O)[nH]c2nnc(-c3ccc([N+](=O)[O-])cc3)nc2c1=O | > 50 µM (inactive) |
| CC(=O)Oc1ccccc1N(/C=C1\Sc2ccccc2C1=O)C(C)=O | > 50 µM (inactive) |
| Cn1c(=O)c2nc(-c3ccccc3)c(=O)[nH]c2n(C)c1=O | > 50 µM (inactive) |
| CCCCCOC(=O)c1ccc(NC(=O)c2ccc([N+](=O)[O-])cc2)cc1 | > 50 µM (inactive) |
| CC(=O)N(/N=C1\Sc2ccccc2C1=O)c1ccc(C)cc1C | > 50 µM (inactive) |
| CC(=O)N(/N=C1\Sc2ccccc2C1=O)c1ccccc1I | > 50 µM (inactive) |
| CCCOC(=O)c1ccc(NC(=O)c2ccc(OC)c([N+](=O)[O-])c2)cc1 | > 50 µM (inactive) |
| CC(=O)N(/N=C1\Sc2ccccc2C1=O)c1ccccc1 | 20.5 µM |
| Cn1nc(-c2ccc([N+](=O)[O-])cc2)nc2c(=O)n(C)c(=O)nc1-2 | 0.375 µM |
| CCn1nc(-c2ccc([N+](=O)[O-])cc2)nc2c(=O)n(C)c(=O)nc1-2 | 0.571 µM |
| CCOC(=O)c1ccc(N=Cc2c(O)n(-c3cccc(OC)c3)c(=O)[nH]c2=O)cc1 | > 50 µM (inactive) |
| CC(=O)N(CN1C(=O)c2ccc([N+](=O)[O-])cc2C1=O)c1ccc(Oc2ccccc2)cc1 | > 50 µM (inactive) |
| CCOC(=O)c1ccc(NC(=O)C2CCC(C(C)(C)C)CC2)cc1 (stereo not drawn) | > 50 µM (inactive) |
| CCCCCCC(=O)N(CN1C(=O)c2ccccc2C1=O)c1ccccc1OC | > 50 µM (inactive) |
| COc1ccc(N(/N=C2\Sc3ccccc3C2=O)C(C)=O)cc1 | 15.2 µM |
| Cn1c(=O)[nH]c2nnc(-c3ccc4c(c3)OCO4)nc2c1=O | > 50 µM (inactive) and 4.91 µM |
| CCn1nc(-c2ccccc2Br)nc2c(=O)n(C)c(=O)nc1-2 | 1.35 µM |
| CCOc1ccc(-c2nc3c(=O)n(C)c(=O)nc-3n(C)n2)cc1OC | 0.022 µM |
| COc1ccc(N(/C=C2\Sc3ccccc3C2=O)C(C)=O)cc1 | > 50 µM (inactive) |
| COc1ccccc1N(CN1C(=O)c2ccc([N+](=O)[O-])cc2C1=O)C(C)=O | > 50 µM (inactive) |
| CC(=O)Oc1ccccc1N(/C=C1/Sc2ccccc2C1=O)C(C)=O | > 50 µM (inactive) |
| CC(=O)N(CN1C(=O)c2ccccc2C1=O)c1cc(C)ccc1C | > 50 µM (inactive) |
| O=C1NC(=O)C(=Cc2cccn2-c2ccc([N+](=O)[O-])cc2)C(=O)N1 | > 50 µM (inactive) |

| SMILES | IC50 |
| --- | --- |
| CC(=O)N(CN1C(=O)c2cc(Cl)c(Cl)cc2C1=O)c1ccc(C)c(Cl)c1 | > 50 µM (inactive) |
| O=c1[nH]c2c(c(O)c1-c1ccccc1)c(=O)n(-c1ccccc1)c(=O)n2-c1ccccc1 | > 50 µM (inactive) |
| CCOC(=O)c1ccc(NC(=O)C2CCC(C)CC2)cc1 (stereo not drawn) | > 50 µM (inactive) |
| CCOC(=O)c1ccc(NC(=O)c2cc(=O)[nH]c3ccccc23)cc1 | > 50 µM (inactive) |
| CCCOC(=O)c1ccc(NC(=O)c2c(F)c(F)c(F)c(F)c2F)cc1 | > 50 µM (inactive) |
| CCN(CC)CCOC(=O)c1ccc(NC(=O)c2cc(OC)c(OC)cc2OC)cc1 | > 50 µM (inactive) |
| CCn1nc(-c2ccccc2C)nc2c(=O)n(C)c(=O)nc1-2 | 0.636 µM and 5.67 µM |
| CC(=O)N(/C=C1\Sc2ccccc2C1=O)c1cccc(C)c1 | > 50 µM (inactive) |
| CCn1nc(-c2ccc(OC)cc2)nc2c(=O)n(C)c(=O)nc1-2 | 0.912 µM |
| COc1ccc(C(=O)COC(=O)c2ccc(NC(=O)c3ccccc3)cc2)cc1 | > 50 µM (inactive) |
| CCOC(=O)c1ccc(NC(=O)C2C3C=CC(C3)C2(C)C(=O)O)cc1 (stereo not drawn) | > 50 µM (inactive) |
| CC(=O)N(CN1C(=O)c2ccccc2C1=O)c1ccc(C)cc1 | > 50 µM (inactive) |
| COc1ccccc1N(CN1C(=O)c2ccccc2C1=O)C(C)=O | > 50 µM (inactive) |
| CC(=O)N(CN1C(=O)c2ccccc2C1=O)c1ccc2ccccc2c1 | > 50 µM (inactive) |
| CC(=O)N(CN1C(=O)c2ccccc2C1=O)c1cc(Br)ccc1C | > 50 µM (inactive) |
| CC(=O)c1ccc(N(CN2C(=O)c3ccc([N+](=O)[O-])cc3C2=O)C(C)=O)cc1 | > 50 µM (inactive) |
| CC(=O)N(CN1C(=O)c2ccccc2C1=O)c1ccc(C)c(Cl)c1 | > 50 µM (inactive) |
| CCN(CC)CCOC(=O)c1ccc(N=Cc2c(O)n(Cc3ccccc3)c(=O)[nH]c2=O)cc1 | > 50 µM (inactive) |
| CCOC(=O)c1ccc(N=Cc2c(O)n(-c3ccc(C)cc3)c(=O)[nH]c2=O)cc1 | > 50 µM (inactive) |
| CCOC(=O)c1ccc(N=Cc2c(O)n(Cc3ccccc3Cl)c(=O)[nH]c2=O)cc1 | > 50 µM (inactive) |
| CCn1nc(-c2cccc(Cl)c2)nc2c(=O)n(C)c(=O)nc1-2 | 0.282 µM and > 50 µM (inactive) |
| Cn1c(=O)[nH]c2nnc(-c3ccc(Cl)cc3)nc2c1=O | > 50 µM (inactive) |
| COc1cc(C=C2C(=O)NC(=O)NC2=O)ccc1OCc1c(C)no[n+]1[O-] | > 50 µM (inactive) |
| COc1cc(C=C2C(=O)NC(=O)NC2=O)cc(Cl)c1O | > 50 µM (inactive) |
